What was measured:
Plasma = assay: Dose normalized fCmax in C57BL/6J mouse plasma at 10 mg/kg, po; assay type: ADME, organism-based; parameters: dose 10 mg/kg, route oral; details: in vivo
Brain = assay: Dose normalized fCmax in C57BL/6J mouse brain at 10 mg/kg, po; assay type: ADME, organism-based; parameters: dose 10 mg/kg, route oral; details: in vivo

SMILES: Nc1ncnc2c1c(COc1cccc(Cl)c1)nn2C1CCOCC1
- fCmax/dose (Plasma): 180 nM
- fCmax/dose (Brain): 88 nM
